Reference: ChEMBL document CHEMBL3044672, “N9- and N7-(Chloromethyl Phenymethyl)Chloropurine Derivatives from , '-Dichloroxylenes: Synthesis and Anticancer Activity” (2005)

Tests used:
Assay type in all cases: functional
A498 = experiment: Cytotoxicity against Homo sapiens (human) A498 cells after 48 hr by sulforhodamine B assay; conditions: A498, 48 h
OVCAR-8 = experiment: Cytotoxicity against Homo sapiens (human) OVCAR8 cells after 48 hr by sulforhodamine B assay; conditions: OVCAR-8, 48 h
OVCAR-4 = experiment: Cytotoxicity against Homo sapiens (human) OVCAR4 cells after 48 hr by sulforhodamine B assay; conditions: OVCAR-4, 48 h
OVCAR-3 = experiment: Cytotoxicity against Homo sapiens (human) OVCAR3 cells after 48 hr by sulforhodamine B assay; conditions: OVCAR-3, 48 h
SK-MEL-28 = experiment: Cytotoxicity against Homo sapiens (human) SK-MEL-28 cells after 48 hr by sulforhodamine B assay; conditions: SK-MEL-28, 48 h
U-251 = experiment: Cytotoxicity against Homo sapiens (human) U251 cells after 48 hr by sulforhodamine B assay; conditions: U-251, 48 h
SNB-75 = experiment: Cytotoxicity against Homo sapiens (human) SNB75 cells after 48 hr by sulforhodamine B assay; conditions: SNB-75, 48 h; for CC50: read-out: LC50 (the source's name)
SF-539 = experiment: Cytotoxicity against Homo sapiens (human) SF539 cells after 48 hr by sulforhodamine B assay; conditions: SF-539, 48 h
MDA-MB-435 = experiment: Cytotoxicity against Homo sapiens (human) MDA-MB-435 cells after 48 hr by sulforhodamine B assay; conditions: MDA-MB-435, 48 h
BT-549 = experiment: Cytotoxicity against Homo sapiens (human) BT549 cells after 48 hr by sulforhodamine B assay; conditions: BT-549, 48 h
MCF7 = experiment: Cytotoxicity against Homo sapiens (human) MCF7 cells after 48 hr by sulforhodamine B assay; conditions: MCF7, 48 h
UO-31 = experiment: Cytotoxicity against Homo sapiens (human) UO31 cells after 48 hr by sulforhodamine B assay; conditions: UO-31, 48 h
PC-3 = experiment: Cytotoxicity against Homo sapiens (human) PC3 cells after 48 hr by sulforhodamine B assay; conditions: PC-3, 48 h
SN12C = experiment: Cytotoxicity against Homo sapiens (human) SN12C cells after 48 hr by sulforhodamine B assay
SW-620 = experiment: Cytotoxicity against Homo sapiens (human) SW620 cells after 48 hr by sulforhodamine B assay; conditions: SW-620, 48 h; for CC50: read-out: LC50 (the source's name)
KM12 = experiment: Cytotoxicity against Homo sapiens (human) KM12 cells after 48 hr by sulforhodamine B assay; conditions: KM12, 48 h; for CC50: read-out: LC50 (the source's name)
HT-29 = experiment: Cytotoxicity against Homo sapiens (human) HT-29 cells after 48 hr by sulforhodamine B assay; conditions: HT-29, 48 h; for CC50: read-out: LC50 (the source's name)
HCT-15 = experiment: Cytotoxicity against Homo sapiens (human) HCT15 cells after 48 hr by sulforhodamine B assay; conditions: HCT-15, 48 h; for CC50: read-out: LC50 (the source's name)
HCT-116 = experiment: Cytotoxicity against Homo sapiens (human) HCT116 cells after 48 hr by sulforhodamine B assay; conditions: HCT-116, 48 h; for CC50: read-out: LC50 (the source's name)
COLO 205 = experiment: Cytotoxicity against Homo sapiens (human) COLO205 cells after 48 hr by sulforhodamine B assay; conditions: COLO 205, 48 h; for CC50: read-out: LC50 (the source's name)
NCI-H522 = experiment: Cytotoxicity against Homo sapiens (human) NCI-H522 cells after 48 hr by sulforhodamine B assay; conditions: NCI-H522, 48 h; for CC50: read-out: LC50 (the source's name)
NCI-H226 = experiment: Cytotoxicity against Homo sapiens (human) NCI-H226 cells after 48 hr by sulforhodamine B assay; conditions: NCI-H226, 48 h; for CC50: read-out: LC50 (the source's name)
RPMI-8226 = experiment: Cytotoxicity against Homo sapiens (human) RPMI8226 cells after 48 hr by sulforhodamine B assay; conditions: RPMI-8226, 48 h; for CC50: read-out: LC50 (the source's name)
K562 = experiment: Cytotoxicity against Homo sapiens (human) K562 cells after 48 hr by sulforhodamine B assay; conditions: K562, 48 h; for CC50: read-out: LC50 (the source's name)
CCRF-CEM = experiment: Cytotoxicity against Homo sapiens (human) CCRF-CEM cells after 48 hr by sulforhodamine B assay; conditions: for CC50: read-out: LC50 (the source's name)
SF-268 = experiment: Cytotoxicity against Homo sapiens (human) SF268 cells assessed as cell growth at 10^-4 M after 48 hr by […] assay; conditions: SF-268, 48 h, read-out: Activity
NCI-H460 = experiment: Cytotoxicity against Homo sapiens (human) NCI-H460 cells assessed as cell growth at 10^-4 M after 48 hr by Alamar blue assay; conditions: NCI-H460, 48 h, read-out: Activity

`Nc1nc(Cl)c2ncn(Cc3cccc(CCl)c3)c2n1` was tested, and the GI50 (A498) was 25.1 µM, the LC50 (lethal concentration, 50% cell kill) (A498) was > 100 µM and the TGI (A498) was 51.3 µM. For the same compound, the GI50 (OVCAR-8) was 2.29 µM, the LC50 (concentration killing 50% of cells) (OVCAR-8) was 53.7 µM and the TGI (OVCAR-8) was 6.76 µM. For the same compound, the GI50 (OVCAR-4) was 1.95 µM, the LC50 (concentration killing 50% of cells) (OVCAR-4) was 9.54 µM and the TGI (OVCAR-4) was 4.26 µM. The GI50 (OVCAR-3) was 0.72 µM, the LC50 (OVCAR-3) was 5.49 µM and the TGI (OVCAR-3) was 2.29 µM. For the same compound, the GI50 (SK-MEL-28) was 4.46 µM, the LC50 (concentration killing 50% of cells) (SK-MEL-28) was 74.1 µM and the TGI (SK-MEL-28) was 19.1 µM. For the same compound, the GI50 (U-251) was 1.82 µM, the LC50 (concentration killing 50% of cells) (U-251) was 9.33 µM and the TGI (U-251) was 4.07 µM. The GI50 (SNB-75) was 5.75 µM, the TGI (SNB-75) was 19.5 µM and the CC50 (SNB-75) was 51.3 µM. For the same compound, the GI50 (SF-539) was 4.67 µM, the LC50 (concentration killing 50% of cells) (SF-539) was 69.2 µM and the TGI (SF-539) was 20.4 µM. It also gave a GI50 (MDA-MB-435) of 3.81 µM, an LC50 (MDA-MB-435) of 85.1 µM and a TGI (MDA-MB-435) of 22.4 µM. The GI50 (BT-549) was 4.07 µM, the LC50 (50% lethal concentration) (BT-549) was 58.9 µM and the TGI (BT-549) was 17.4 µM. For the same compound, the GI50 (MCF7) was 2.39 µM, the LC50 (concentration killing 50% of cells) (MCF7) was 53.7 µM and the TGI (MCF7) was 9.55 µM. The GI50 (UO-31) was 13.5 µM, the LC50 (concentration causing 50% net cell kill) (UO-31) was 77.6 µM and the TGI (UO-31) was 32.4 µM. It also gave a GI50 (PC-3) of 9.77 µM, an LC50 (concentration causing 50% cell kill) (PC-3) of 63.1 µM and a TGI (PC-3) of 25.1 µM. For the same compound, the GI50 (SN12C) was 4.46 µM, the LC50 (50% lethal concentration) (SN12C) was 39.8 µM and the TGI (SN12C) was 15.5 µM. For the same compound, the GI50 (SW-620) was 3.8 µM, the TGI (SW-620) was 11.2 µM and the CC50 (SW-620) was 57.5 µM. It also gave a GI50 (KM12) of 3.31 µM, a TGI (KM12) of 13.2 µM and a CC50 (KM12) of 37.1 µM. For the same compound, the GI50 (HT-29) was 2.51 µM, the TGI (HT-29) was 9.77 µM and the CC50 (HT-29) was 64.6 µM. It also gave a GI50 (HCT-15) of 2.51 µM, a TGI (HCT-15) of 6.76 µM and a CC50 (HCT-15) of 33.1 µM. For the same compound, the GI50 (HCT-116) was 1.99 µM, the TGI (HCT-116) was 3.89 µM and the CC50 (HCT-116) was 75.9 µM. For the same compound, the GI50 (COLO 205) was 6.76 µM, the TGI (COLO 205) was 27.5 µM and the CC50 (COLO 205) was 97.7 µM. It also gave a GI50 (NCI-H522) of 3.31 µM, a TGI (NCI-H522) of 13.5 µM and a CC50 (NCI-H522) of 81.3 µM. For the same compound, the GI50 (NCI-H226) was 10.7 µM, the TGI (NCI-H226) was 42.6 µM and the CC50 (NCI-H226) was > 100 µM. For the same compound, the GI50 (RPMI-8226) was 2.39 µM, the TGI (RPMI-8226) was 11.8 µM and the CC50 (RPMI-8226) was > 100 µM. For the same compound, the GI50 (K562) was 4.36 µM, the TGI (K562) was > 100 µM and the CC50 (K562) was > 100 µM. For the same compound, the GI50 (CCRF-CEM) was 3.02 µM, the TGI (CCRF-CEM) was > 100 µM and the CC50 (CCRF-CEM) was > 100 µM. It also gave a growth at 100 µM (SF-268) of 0% and a growth at 100 µM (NCI-H460) of 0%.

`ClCc1ccccc1Cn1cnc2ncnc(Cl)c21` showed a GI50 (A498) of 18.6 µM, an LC50 (lethal concentration, 50% cell kill) (A498) of 57.5 µM and a TGI (A498) of 33.1 µM. For the same compound, the GI50 (OVCAR-8) was 2.75 µM, the LC50 (concentration killing 50% of cells) (OVCAR-8) was 58.9 µM and the TGI (OVCAR-8) was 8.7 µM. It also gave a GI50 (OVCAR-4) of 4.89 µM, an LC50 (concentration killing 50% of cells) (OVCAR-4) of 77.6 µM and a TGI (OVCAR-4) of 20.4 µM. The GI50 (OVCAR-3) was 2.04 µM, the LC50 (OVCAR-3) was 8.31 µM and the TGI (OVCAR-3) was 4.16 µM. The GI50 (SK-MEL-28) was 4.46 µM, the LC50 (concentration killing 50% of cells) (SK-MEL-28) was 79.4 µM and the TGI (SK-MEL-28) was 18.6 µM. The GI50 (U-251) was 1.9 µM, the LC50 (concentration killing 50% of cells) (U-251) was 10.2 µM and the TGI (U-251) was 4.36 µM. It also gave a GI50 (SNB-75) of 11.2 µM, a TGI (SNB-75) of 26.9 µM and a CC50 (SNB-75) of 63.1 µM. For the same compound, the GI50 (SF-539) was 2.34 µM, the LC50 (concentration killing 50% of cells) (SF-539) was 12 µM and the TGI (SF-539) was 5.01 µM. It also gave a GI50 (MDA-MB-435) of 1.94 µM, an LC50 (MDA-MB-435) of 7.58 µM and a TGI (MDA-MB-435) of 3.8 µM. For the same compound, the GI50 (BT-549) was 2.45 µM, the LC50 (50% lethal concentration) (BT-549) was 25.1 µM and the TGI (BT-549) was 6.02 µM. The GI50 (MCF7) was 3.63 µM, the LC50 (concentration killing 50% of cells) (MCF7) was > 100 µM and the TGI (MCF7) was > 100 µM. The GI50 (UO-31) was 3.23 µM, the LC50 (concentration causing 50% net cell kill) (UO-31) was 77.6 µM and the TGI (UO-31) was 10.7 µM. For the same compound, the GI50 (PC-3) was 4.46 µM, the LC50 (concentration causing 50% cell kill) (PC-3) was 74.1 µM and the TGI (PC-3) was 19.1 µM. It also gave a GI50 (SN12C) of 2.95 µM, an LC50 (50% lethal concentration) (SN12C) of 42.6 µM and a TGI (SN12C) of 8.51 µM. It also gave a GI50 (SW-620) of 2.23 µM, a TGI (SW-620) of 4.67 µM and a CC50 (SW-620) of 10 µM. For the same compound, the GI50 (KM12) was 3.63 µM, the TGI (KM12) was 11.2 µM and the CC50 (KM12) was 38 µM. For the same compound, the GI50 (HT-29) was 3.89 µM, the TGI (HT-29) was > 100 µM and the CC50 (HT-29) was > 100 µM. It also gave a GI50 (HCT-15) of 1.38 µM, a TGI (HCT-15) of 2.88 µM and a CC50 (HCT-15) of 6.16 µM. The GI50 (HCT-116) was 1.51 µM, the TGI (HCT-116) was 4.07 µM and the CC50 (HCT-116) was 40.7 µM. For the same compound, the GI50 (COLO 205) was 4.36 µM, the TGI (COLO 205) was > 100 µM and the CC50 (COLO 205) was > 100 µM. The GI50 (NCI-H522) was 2.81 µM, the TGI (NCI-H522) was 75.9 µM and the CC50 (NCI-H522) was > 100 µM. The GI50 (NCI-H226) was 3.38 µM, the TGI (NCI-H226) was 7.94 µM and the CC50 (NCI-H226) was > 100 µM. The GI50 (RPMI-8226) was 2.08 µM, the TGI (RPMI-8226) was 5.49 µM and the CC50 (RPMI-8226) was 50.1 µM. The GI50 (K562) was 2.23 µM, the TGI (K562) was 5.88 µM and the CC50 (K562) was 83.2 µM. It also gave a GI50 (CCRF-CEM) of 1.44 µM, a TGI (CCRF-CEM) of 3.54 µM and a CC50 (CCRF-CEM) of 8.7 µM. For the same compound, the growth at 100 µM (SF-268) was 0% and the growth at 100 µM (NCI-H460) was 0%.
